In ChEMBL document CHEMBL1152416, “N-terminal-prolonged vinyl ester-based peptides as selective proteasome beta1 subunit inhibitors” (Bioorg Med Chem, 2009) one finds IC50, half-life and Activity data, which are given here for 16 compounds.

For orientation: IC50 means the concentration that gives 50% inhibition. The low end stands for higher potency, the high end for lower potency. As a reminder, the half-life is how long it takes for the measured level to halve.

A short description of data set [1]: Inhibition of trypsin-like activity of proteasome from human LCL after 30 mins by fluorimetry. Type of data set: subcellular.
A short description of data set [2]: Inhibition of […] activity of proteasome from human LCL after 30 mins by fluorimetry. The data set is classed as subcellular.
A short description of data set [3]: Inhibition of post acidic activity of proteasome from human LCL after 30 mins by fluorimetry. The data set is classed as subcellular.
Data set [4] can be described thus: Inhibition of trypsin-like activity of proteasome from human PBMC after 30 mins by fluorimetry. The data set is classed as subcellular.
Data set [5] in a line: Inhibition of […] activity of proteasome from human PBMC after 30 mins by fluorimetry. The data set is classed as subcellular.
Data set [6] is described as follows: Inhibition of post acidic activity of proteasome from human PBMC after 30 mins by fluorimetry. The data set is classed as subcellular.
Data set [7] can be described thus: Inhibition of trypsin-like activity of proteasome in human PBMC after 30 mins by cell based assay. The following applies: 0.5 h.
A short description of data set [8]: Inhibition of […] activity of proteasome from human PBMC after 30 mins by cell based assay. The conditions noted are these: 0.5 h.
A short description of data set [9]: Inhibition of post acidic activity of proteasome from human PBMC after 30 mins by cell based assay. The following applies: 0.5 h.
For data set [10], the species on record is Homo sapiens. The data set can be described thus: Stability in human plasma assessed as half life.
A short description of data set [11]: Antiproliferative activity against human LCL cells assessed as cell viability at <10 uM after 3 days by trypan blue assay. Type of data set: cell-based. The conditions noted are these: 72 h.
Data set [12] concerns JIYOYE. Put plainly: Antiproliferative activity against human Jijoye cells assessed as cell viability at <10 uM after 3 days by trypan blue assay. The data set is classed as functional, cell-based.
Data set [13] can be described thus: Antiproliferative activity against human LCL cells assessed as cell viability at 10 uM after 3 days by trypan blue assay. Type of data set: cell-based. The conditions noted are these: 72 h.
Data set [14] has as its system JIYOYE. Put plainly: Antiproliferative activity against human Jijoye cells assessed as cell viability at 10 uM after 3 days by trypan blue assay. Type of data set: functional, cell-based.

Molecules are shown by their SMILES. Where a SMILES comes first, the peptide text is derived from it. The star is where a group is joined. Cbz = O=C(OCc1ccccc1)*; X1 = C=CO* A value given as a limit tells only on which side of the number the result lay.

Turning to `C=COC(=O)[C@H](CC(C)C)NC(=O)[C@H](CO)NC(=O)[C@@H](NC(=O)CCCCCNC(=O)OCc1ccccc1)C(C)C`, the IC50 in data set [1] was above 10 µM; in [2] it was above 10 µM; in data set [3], 1.39 µM; in data set [4], above 10 µM; in data set [5] it was above 10 µM; in data set [6], 0.198 µM. Further, the values for the IC50 in [7], in [8] and in data set [9] were above 10 µM, above 10 µM and 0.41 µM, respectively. In addition, the half-life in [10] is above 6 h.
Consider `C=COC(=O)[C@H](CC(C)C)NC(=O)[C@H](CO)NC(=O)[C@@H](NC(=O)CCCNC(=O)OCc1ccccc1)C(C)C`, for which the IC50 in data set [1] is above 10 µM; in [2] it was above 10 µM; in [3], 6.29 µM; in [4] it was above 10 µM; in data set [5], above 10 µM; in data set [6], 0.745 µM.
Turning to `C=COC(=O)[C@H](CC(C)C)NC(=O)[C@H](CC(C)C)NC(=O)[C@H](CC(C)C)NC(=O)CCCCCCCNC(=O)OCc1ccccc1`, the IC50 in data set [1] was above 10 µM; in data set [2], above 10 µM; in data set [3], 2.43 µM; in [4], above 10 µM; in [5] it was above 10 µM; in data set [6], 0.487 µM.
With `C=COC(=O)[C@H](CC(C)C)NC(=O)[C@H](CO)NC(=O)[C@@H](NC(=O)CCCCCCCNC(=O)OCc1ccccc1)C(C)C`, the IC50 was above 10 µM in [1]; above 10 µM in data set [2]; 5.64 µM in data set [3]; above 10 µM in data set [4]; above 10 µM in data set [5]; 0.175 µM in data set [6]. The IC50 was above 10 µM in [7], above 10 µM in data set [8] and 0.219 µM in data set [9]. The Activity entry is “Non-toxic” in data set [11], “Non-toxic” in data set [12], “Toxic” in data set [13] and “Toxic” in data set [14]. Also, in data set [10], the half-life is above 6 h.
As for `CC[C@H](C)[C@H](NC(=O)[C@H]([C@@H](C)CC)N(C)C(C)=O)C(=O)N[C@H](C(=O)N[C@@H](CC(C)C)C(=O)[C@@]1(C)CO1)[C@@H](C)O` [EPOXOMYCIN], the IC50 is 0.005 µM in data set [2], 0.758 µM in data set [4], 0.009 µM in data set [5] and above 10 µM in data set [6].
In the case of `C=COC(=O)[C@H](CC(C)C)NC(=O)[C@H](CC(C)C)NC(=O)[C@H](CC(C)C)NC(=O)CCCCCNC(=O)OCc1ccccc1`, the IC50 in data set [1] is above 10 µM; in data set [2] it was above 10 µM; in [3], 1.08 µM; in data set [4], 5.98 µM; in data set [5], above 10 µM; in data set [6], 0.053 µM. For the same compound, the figures for the IC50 in [7], in data set [8] and in data set [9] were 8.86 µM, above 10 µM and 0.086 µM, respectively. Besides, the Activity result in data set [11] is “Non-toxic”; in data set [12], “Non-toxic”; in [13], “Toxic”; in data set [14] it was “Toxic”. Further, the half-life in data set [10] was above 6 h.
On to `CC(C)C[C@@H](C=O)NC(=O)[C@H](CC(C)C)NC(=O)[C@H](CC(C)C)NC(=O)OCc1ccccc1` [MG-132] (Cbz-Leu-Leu-Leu-aldehyde), for which the IC50 in data set [1] was 1.08 µM; in [2], 0.002 µM; in [3], above 10 µM; in data set [4] it was 0.911 µM; in data set [5], 0.023 µM; in data set [6] it was above 10 µM.
As to `C=COC(=O)[C@H](CC(C)C)NC(=O)[C@H](CO)NC(=O)[C@@H](NC(=O)CCCCCCNC(=O)OCc1ccccc1)C(C)C`, the IC50 in data set [1] was above 10 µM; in data set [2], above 10 µM; in [3], 2.71 µM; in data set [4], above 10 µM; in data set [5], above 10 µM; in [6], 0.186 µM. Besides, the IC50 in data set [7] is above 10 µM; in [8], above 10 µM; in data set [9] it was 0.237 µM. For the same compound, in data set [10], the half-life was above 6 h.
Consider `C=COC(=O)[C@H](CC(C)C)NC(=O)[C@H](CC(C)C)NC(=O)[C@H](CC(C)C)NC(=O)CCCCCCNC(=O)OCc1ccccc1`, for which the IC50 in data set [1] was above 10 µM; in [2] it was above 10 µM; in data set [3], 1.67 µM; in data set [4] it was above 10 µM; in data set [5], above 10 µM; in data set [6], 0.165 µM.
Regarding `C=COC(=O)[C@H](CC(C)C)NC(=O)[C@H](CO)NC(=O)[C@@H](NC(=O)CNC(=O)OCc1ccccc1)C(C)C` (Cbz-GVSL-X1), the IC50 was above 10 µM in [1]; above 10 µM in [2]; above 10 µM in data set [3]; above 10 µM in data set [4]; above 10 µM in data set [5]; 2.89 µM in [6].
As for `C=COC(=O)[C@H](CC(C)C)NC(=O)[C@H](CC(C)C)NC(=O)[C@H](CC(C)C)NC(=O)CCCCNC(=O)OCc1ccccc1`, the IC50 in data set [1] was above 10 µM; in data set [2], above 10 µM; in data set [3], 0.87 µM; in data set [4], 6.05 µM; in data set [5], above 10 µM; in data set [6], 0.078 µM. The IC50 in data set [7] is 9.54 µM; in [8], above 10 µM; in [9], 0.128 µM. The half-life in data set [10] was above 6 h.
For `C=COC(=O)[C@H](CC(C)C)NC(=O)[C@H](CC(C)C)NC(=O)[C@H](CC(C)C)NC(=O)CCCNC(=O)OCc1ccccc1`, the IC50 was above 10 µM in data set [1]; above 10 µM in data set [2]; 2.07 µM in data set [3]; 7.23 µM in data set [4]; above 10 µM in [5]; 0.208 µM in [6]. Besides, the IC50 was above 10 µM in data set [7], above 10 µM in data set [8] and 0.33 µM in data set [9]. For the same compound, in data set [10], the half-life is above 6 h.
Consider `C=COC(=O)[C@H](CC(C)C)NC(=O)[C@H](CC(C)C)NC(=O)[C@H](CC(C)C)NC(=O)CCNC(=O)OCc1ccccc1`, for which the half-inhibitory concentration (IC50) was above 10 µM in data set [1]; above 10 µM in data set [2]; 2.34 µM in data set [3]; above 10 µM in data set [4]; above 10 µM in [5]; 0.213 µM in data set [6]. The values for the IC50 in [7], in data set [8] and in data set [9] were above 10 µM, above 10 µM and 0.32 µM, respectively. Further, in data set [10], the half-life is above 6 h.
Regarding `C=COC(=O)[C@H](CC(C)C)NC(=O)[C@H](CC(C)C)NC(=O)[C@H](CC(C)C)NC(=O)CNC(=O)OCc1ccccc1` (Cbz-GLLL-X1), the IC50 in data set [1] is above 10 µM; in data set [2], above 10 µM; in data set [3], above 10 µM; in data set [4], above 10 µM; in [5], above 10 µM; in data set [6], 0.545 µM.
With `C=COC(=O)[C@H](CC(C)C)NC(=O)[C@H](CO)NC(=O)[C@@H](NC(=O)CCCCNC(=O)OCc1ccccc1)C(C)C`, the IC50 was above 10 µM in data set [1]; above 10 µM in [2]; 1.54 µM in data set [3]; above 10 µM in data set [4]; above 10 µM in [5]; 0.231 µM in data set [6]. Moreover, the IC50 in [7] is above 10 µM; in data set [8], above 10 µM; in data set [9] it was 0.45 µM. For the same compound, in data set [10], the half-life was above 6 h.
`C=COC(=O)[C@H](CC(C)C)NC(=O)[C@H](CO)NC(=O)[C@@H](NC(=O)CCNC(=O)OCc1ccccc1)C(C)C`: the IC50 in data set [1] is above 10 µM; in data set [2], above 10 µM; in data set [3], above 10 µM; in data set [4], above 10 µM; in [5], above 10 µM; in data set [6], 0.831 µM.
